Laboratory results published in patent US20260297081A1, “COMPOUNDS AND METHODS OF TREATING CANCERS” (Cullgen Inc., priority 2023, published 2026).

What was measured:
Format in all cases: cell-based
CDK4 [1] = target: T1, CDK4 (Homo sapiens, UniProt P11802+Q16531); assay: HiBiT detection of HiBiT-tagged CDK4 protein level in MCF7 cells, 16 hours (Table 8); design: expressed in transfected cells; host or cells: MCF7; settings: MCF7 cells stably expressing HiBiT tagged target proteins; for activity at 0.01 µM: 10 nM, read-out: % CDK4 Relative Level (10 nM); for activity at 0.1 µM: 100 nM, read-out: % CDK4 Relative Level (100 nM)
Procedure: HiBiT detection system quantitatively measures total amounts of HiBiT-tagged proteins using a luminescent based method. MCF7 cells stably expressing HiBiT tagged target proteins were treated with heterobifunctional compounds at indicated concentrations for 16 hours, then lysed with Nano-Glo HiBiT Lytic detection reagents.
Target sequence in this assay (P11802 whole entry): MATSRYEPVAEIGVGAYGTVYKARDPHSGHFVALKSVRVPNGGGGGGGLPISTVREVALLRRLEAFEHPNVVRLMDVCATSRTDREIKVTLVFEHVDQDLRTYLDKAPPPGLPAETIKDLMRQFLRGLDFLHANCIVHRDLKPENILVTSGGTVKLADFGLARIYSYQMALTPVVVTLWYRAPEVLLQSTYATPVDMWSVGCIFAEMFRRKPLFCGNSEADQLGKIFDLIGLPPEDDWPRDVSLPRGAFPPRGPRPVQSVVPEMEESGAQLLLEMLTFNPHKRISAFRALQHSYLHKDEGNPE
Target sequence in this assay (P24385 whole entry partner): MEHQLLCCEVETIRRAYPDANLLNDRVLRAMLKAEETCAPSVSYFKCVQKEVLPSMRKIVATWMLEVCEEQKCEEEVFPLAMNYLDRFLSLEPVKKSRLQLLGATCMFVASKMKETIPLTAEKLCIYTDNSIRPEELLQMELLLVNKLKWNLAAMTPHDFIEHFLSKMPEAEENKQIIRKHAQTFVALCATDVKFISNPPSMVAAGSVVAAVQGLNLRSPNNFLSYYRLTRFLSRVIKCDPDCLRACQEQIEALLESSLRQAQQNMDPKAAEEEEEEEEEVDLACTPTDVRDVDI
Target sequence in this assay (Q16531 2-1140 limits assumed): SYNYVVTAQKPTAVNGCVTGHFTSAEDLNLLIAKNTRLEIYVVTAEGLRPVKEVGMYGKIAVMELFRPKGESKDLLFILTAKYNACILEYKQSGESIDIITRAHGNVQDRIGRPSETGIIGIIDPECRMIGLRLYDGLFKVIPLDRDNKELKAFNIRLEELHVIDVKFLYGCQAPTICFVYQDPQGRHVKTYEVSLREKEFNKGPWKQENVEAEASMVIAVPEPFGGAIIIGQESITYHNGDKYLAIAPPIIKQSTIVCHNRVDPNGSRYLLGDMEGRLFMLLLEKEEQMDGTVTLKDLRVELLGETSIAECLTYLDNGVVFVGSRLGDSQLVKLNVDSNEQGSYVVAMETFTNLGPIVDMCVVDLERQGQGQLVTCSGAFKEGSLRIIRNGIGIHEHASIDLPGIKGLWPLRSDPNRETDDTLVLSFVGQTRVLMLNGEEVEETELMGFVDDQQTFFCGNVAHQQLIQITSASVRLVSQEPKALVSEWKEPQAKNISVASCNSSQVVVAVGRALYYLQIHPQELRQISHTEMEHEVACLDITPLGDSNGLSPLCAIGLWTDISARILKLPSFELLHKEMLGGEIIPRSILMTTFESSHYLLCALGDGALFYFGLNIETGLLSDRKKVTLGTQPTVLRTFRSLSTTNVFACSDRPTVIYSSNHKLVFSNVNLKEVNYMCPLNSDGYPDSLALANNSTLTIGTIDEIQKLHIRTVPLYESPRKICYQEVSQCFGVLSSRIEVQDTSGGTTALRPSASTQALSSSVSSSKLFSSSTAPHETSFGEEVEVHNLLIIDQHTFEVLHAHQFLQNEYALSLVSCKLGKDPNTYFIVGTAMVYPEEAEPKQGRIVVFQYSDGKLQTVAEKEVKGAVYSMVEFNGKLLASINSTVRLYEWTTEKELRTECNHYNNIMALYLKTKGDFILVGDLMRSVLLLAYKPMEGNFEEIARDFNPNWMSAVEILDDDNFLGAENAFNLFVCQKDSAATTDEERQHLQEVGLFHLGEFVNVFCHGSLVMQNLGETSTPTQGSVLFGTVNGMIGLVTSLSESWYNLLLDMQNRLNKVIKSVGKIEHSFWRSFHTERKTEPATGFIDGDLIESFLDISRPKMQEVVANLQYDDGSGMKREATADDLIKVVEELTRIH

MCF7 cells = assay: Anti-proliferation (viability) of MCF7 cells (Table 7, FIG. 2B); settings: Homo sapiens, MCF7, MCF7 cells, 3-6 days, 10-point serial dilution; read-out: GI IC50 in MCF-7
CDK4 [2] = target: T1, CDK4; assay: CDK4 percentage degradation in Calu-1 cells (Table 6); design: Cells that express cyclin D1-3 and CDK4/6 proteins were treated with heterobifunctional compounds; endogenous in cells; host or cells: Calu-1; settings: 16 hours; for inhibition at 0.04 µM: 40 nM; for inhibition at 0.2 µM: 200 nM
Method in brief: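 Calu-1 cells exposed to heterobifunctional compounds at 40 nM or 200 nM for 16 h. Cyclin D1 and CDK4 levels measured by Western blot of RIPA lysates (BCA-normalised loading), bands quantified by densitometry and expressed as percentage degradation.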
Target sequence in this assay (P11802 2-303 limits assumed): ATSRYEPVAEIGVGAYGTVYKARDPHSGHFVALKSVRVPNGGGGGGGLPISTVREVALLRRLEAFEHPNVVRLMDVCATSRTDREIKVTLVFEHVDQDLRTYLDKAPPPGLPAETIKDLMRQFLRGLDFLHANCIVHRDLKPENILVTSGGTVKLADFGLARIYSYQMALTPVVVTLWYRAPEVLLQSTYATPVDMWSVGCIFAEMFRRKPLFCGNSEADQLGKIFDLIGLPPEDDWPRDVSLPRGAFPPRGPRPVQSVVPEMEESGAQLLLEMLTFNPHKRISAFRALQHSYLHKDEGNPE
Target sequence in this assay (P24385 whole entry partner): as the sequence (P24385 whole entry partner) above
Target sequence in this assay (Q16531 2-1140 limits assumed): as the sequence (Q16531 2-1140 limits assumed) above

Row | Structure (SMILES) | activity at 0.01 µM (CDK4 [1]) | activity at 0.1 µM (CDK4 [1]) | IC50 (MCF7 cells) | inhibition at 0.04 µM (CDK4 [2]) | inhibition at 0.2 µM (CDK4 [2])
1 | CNc1ccc(C(=O)Nc2ccc(N(C)C)nn2)c(NCCOCCOCCC(=O)N2CCN(c3ccc(Nc4ncc5cc(C(=O)N(C)C)n(C6CCCC6)c5n4)nc3)CC2)n1 [CPD-623, 7-cyclopentyl-2-((5-(4-(3-(2-(2-((3-((6-(dimethylamino)pyridazin-3-yl)carbamoyl)-6-(methylamino)pyridin-2-yl)amino)ethoxy)ethoxy)propanoyl)piperazin-1-yl)pyridin-2-yl)amino)-N,N-dimethyl-7H-pyrrolo[2,3-d]pyrimidine-6-carboxamide] | > 85% | > 85% |  |  | 
2 | CCc1ccc(C(=O)Nc2ccc(N(C)C)nn2)c(NC2CC3(CC(NC(=O)CN4CCN(Cc5ccc(Nc6ncc7c(C)c(C(C)=O)c(=O)n(C8CCCC8)c7n6)nc5)CC4)C3)C2)c1 (centres unmarked) [CPD-598, 2-((6-(2-(4-((6-((6-acetyl-8-cyclopentyl-5-methyl-7-oxo-7,8-dihydropyrido[2,3-d]pyrimidin-2-yl)amino)pyridin-3-yl)methyl)piperazin-1-yl)acetamido)spiro[3.3]heptan-2-yl)amino)-N-(6-(dimethylamino)pyridazin-3-yl)-4-ethylbenzamide] | 55 to 85% | > 85% |  |  | 
3 | CNc1ccc(C(=O)Nc2ccc(N(C)C)nn2)c(NCCC(=O)NC2CCC(Nc3ncc4ccc(=O)n(C5CCCC5)c4n3)CC2)n1 (centres unmarked) [CPD-666, 2-((3-((4-((8-cyclopentyl-7-oxo-7,8-dihydropyrido[2,3-d]pyrimidin-2-yl)amino)cyclohexyl)amino)-3-oxopropyl)amino)-N-(6-(dimethylamino)pyridazin-3-yl)-6-(methylamino)nicotinamide] | > 85% | > 85% |  |  | 
4 | CNc1ccc(C(=O)Nc2ccc(N(C)C)nn2)c(NCCCCCCCC(=O)NC2CCC3(CC2)CC(Nc2ncc4ccc(=O)n(C5CCCC5)c4n2)C3)n1 (centres unmarked) [CPD-678, 2-((8-((2-((8-cyclopentyl-7-oxo-7,8-dihydropyrido[2,3-d]pyrimidin-2-yl)amino)spiro[3.5]nonan-7-yl)amino)-8-oxooctyl)amino)-N-(6-(dimethylamino)pyridazin-3-yl)-6-(methylamino)nicotinamide] | > 85% | > 85% |  |  | 
5 | CNc1ccc(C(=O)Nc2ccc(N(C)C)nn2)c(NCCOCCOCCC(=O)N2CCN(c3ccc(Nc4ncc(F)c(-c5cc(F)c6nc(C)n(C(C)C)c6c5)n4)nc3)CC2)n1 [CPD-655, N-(6-(dimethylamino)pyridazin-3-yl)-2-((2-(2-(3-(4-(6-((5-fluoro-4-(4-fluoro-1-isopropyl-2-methyl-1H-benzo[d]imidazol-6-yl)pyrimidin-2-yl)amino)pyridin-3-yl)piperazin-1-yl)-3-oxopropoxy)ethoxy)ethyl)amino)-6-(methylamino)nicotinamide] | > 85% | > 85% |  |  | 
6 | CNc1ccc(C(=O)Nc2ccc(N(C)C)nn2)c(NCCNC(=O)CN2CCN(c3ccc(Nc4ncc5cc(C(=O)N(C)C)n(C6CCCC6)c5n4)nc3)CC2)n1 [CPD-624, 7-cyclopentyl-2-((5-(4-(2-((2-((3-((6-(dimethylamino)pyridazin-3-yl)carbamoyl)-6-(methylamino)pyridin-2-yl)amino)ethyl)amino)-2-oxoethyl)piperazin-1-yl)pyridin-2-yl)amino)-N,N-dimethyl-7H-pyrrolo[2,3-d]pyrimidine-6-carboxamide] | 55 to 85% | 55 to 85% |  |  | 
7 | CNc1ccc(C(=O)Nc2ccc(N(C)C)nn2)c(NCCCCC(=O)N2CCN(c3ccc(Nc4ncc(F)c(-c5cc(F)c6nc(C)n(C(C)C)c6c5)n4)nc3)CC2)n1 [CPD-650, N-(6-(dimethylamino)pyridazin-3-yl)-2-((5-(4-(6-((5-fluoro-4-(4-fluoro-1-isopropyl-2-methyl-1H-benzo[d]imidazol-6-yl)pyrimidin-2-yl)amino)pyridin-3-yl)piperazin-1-yl)-5-oxopentyl)amino)-6-(methylamino)nicotinamide] | > 85% | > 85% |  |  | 
8 | CNc1ccc(C(=O)Nc2ccc(N(C)C)nn2)c(NCCOCCNC(=O)CN2CCN(Cc3ccc(Nc4ncc(F)c(-c5cc(F)c6nc(C)n(C(C)C)c6c5)n4)nc3)CC2)n1 [CPD-615, N-(6-(dimethylamino)pyridazin-3-yl)-2-((2-(2-(2-(4-((6-((5-fluoro-4-(4-fluoro-1-isopropyl-2-methyl-1H-benzo[d]imidazol-6-yl)pyrimidin-2-yl)amino)pyridin-3-yl)methyl)piperazin-1-yl)acetamido)ethoxy)ethyl)amino)-6-(methylamino)nicotinamide] | > 85% | > 85% |  |  | 
9 | CNc1ccc(C(=O)Nc2ccc(N(C)C)nn2)c(NCCOCCNC(=O)CN2CCN(c3ccc(Nc4ncc5cc(C(=O)N(C)C)n(C6CCCC6)c5n4)nc3)CC2)n1 [CPD-631, 7-cyclopentyl-2-((5-(4-(2-((2-(2-((3-((6-(dimethylamino)pyridazin-3-yl)carbamoyl)-6-(methylamino)pyridin-2-yl)amino)ethoxy)ethyl)amino)-2-oxoethyl)piperazin-1-yl)pyridin-2-yl)amino)-N,N-dimethyl-7H-pyrrolo[2,3-d]pyrimidine-6-carboxamide] | > 85% | > 85% |  |  | 
10 | CNc1ccc(C(=O)Nc2ccc(N(C)C)nn2)c(NCCCCCNC(=O)CN2CCN(c3ccc(Nc4ncc(F)c(-c5cc(F)c6nc(C)n(C(C)C)c6c5)n4)nc3)CC2)n1 [CPD-661, N-(6-(dimethylamino)pyridazin-3-yl)-2-((5-(2-(4-(6-((5-fluoro-4-(4-fluoro-1-isopropyl-2-methyl-1H-benzo[d]imidazol-6-yl)pyrimidin-2-yl)amino)pyridin-3-yl)piperazin-1-yl)acetamido)pentyl)amino)-6-(methylamino)nicotinamide] | > 85% | > 85% |  |  | 
11 | [2H]C([2H])([2H])Nc1ccc(C(=O)Nc2cc(C)n(C)n2)c(NC2CC3(CC(NC(=O)CN4CCN(c5ccc(Nc6ncc7c(C)c(C(C)=O)c(=O)n(C8CCCC8)c7n6)nc5)CC4)C3)C2)n1 (centres unmarked) [CPD-244, 2-((6-(2-(4-(6-((6-acetyl-8-cyclopentyl-5-methyl-7-oxo-7,8-dihydropyrido[2,3-d]pyrimidin-2-yl)amino)pyridin-3-yl)piperazin-1-yl)acetamido)spiro[3.3]heptan-2-yl)amino)-N-(1,5-dimethyl-1H-pyrazol-3-yl)-6-((methyl-d3)amino)nicotinamide] |  |  | 50 to 100 nM | 30 to 50% | 50 to 80%
12 | CC(=O)c1c(C)c2cnc(Nc3ccc(N4CCN(CC(=O)NCC5CC(Nc6nc(NC(C)C)ccc6C(=O)Nc6ccc(N(C)C)nn6)C5)CC4)cn3)nc2n(C2CCCC2)c1=O (centres unmarked) [CPD-316, 2-((3-((2-(4-(6-((6-acetyl-8-cyclopentyl-5-methyl-7-oxo-7,8-dihydropyrido[2,3-d]pyrimidin-2-yl)amino)pyridin-3-yl)piperazin-1-yl)acetamido)methyl)cyclobutyl)amino)-N-(6-(dimethylamino)pyridazin-3-yl)-6-(isopropylamino)nicotinamide] |  |  | < 50 nM | 30 to 50% | 30 to 50%
13 | [2H]C([2H])([2H])Nc1ccc(C(=O)Nc2cccc(C)n2)c(NC2CC3(CC(NC(=O)CN4CCN(c5ccc(Nc6ncc7c(C)c(C(C)=O)c(=O)n(C8CCCC8)c7n6)nc5)CC4)C3)C2)n1 (centres unmarked) [CPD-232, 2-((6-(2-(4-(6-((6-acetyl-8-cyclopentyl-5-methyl-7-oxo-7,8-dihydropyrido[2,3-d]pyrimidin-2-yl)amino)pyridin-3-yl)piperazin-1-yl)acetamido)spiro[3.3]heptan-2-yl)amino)-6-((methyl-d3)amino)-N-(6-methylpyridin-2-yl)nicotinamide] |  |  | 50 to 100 nM | 30 to 50% | 50 to 80%
14 | CC(=O)c1c(C)c2cnc(Nc3ccc(N4CCC5(CC4)CC5C(=O)N4CC5(CC(Nc6nc(NC(C)C)ccc6C(=O)Nc6ccc(N(C)C)nn6)C5)C4)cn3)nc2n(C2CCCC2)c1=O (centres unmarked) [CPD-411, 2-((2-(6-(6-((6-acetyl-8-cyclopentyl-5-methyl-7-oxo-7,8-dihydropyrido[2,3-d]pyrimidin-2-yl)amino)pyridin-3-yl)-6-azaspiro[2.5]octane-1-carbonyl)-2-azaspiro[3.3]heptan-6-yl)amino)-N-(6-(dimethylamino)pyridazin-3-yl)-6-(isopropylamino)nicotinamide] |  |  | < 50 nM | < 30% | < 30%
15 | CNc1ccc(C(=O)Nc2ccc(N(C)C)nn2)c(NC2CC(Cn3cc(CN4CCN(c5ccc(Nc6ncc7c(C)c(C(C)=O)c(=O)n(C8CCCC8)c7n6)nc5)CC4)nn3)C2)n1 (centres unmarked) [CPD-202, 2-((3-((4-((4-(6-((6-acetyl-8-cyclopentyl-5-methyl-7-oxo-7,8-dihydropyrido[2,3-d]pyrimidin-2-yl)amino)pyridin-3-yl)piperazin-1-yl)methyl)-1H-1,2,3-triazol-1-yl)methyl)cyclobutyl)amino)-N-(6-(dimethylamino)pyridazin-3-yl)-6-(methylamino)nicotinamide] |  |  | < 50 nM | 50 to 80% | 50 to 80%
